Test [1] deals with T1, human muscarinic M1 receptor (Homo sapiens, UniProt P11229).
T1 sequence (P11229 1-460): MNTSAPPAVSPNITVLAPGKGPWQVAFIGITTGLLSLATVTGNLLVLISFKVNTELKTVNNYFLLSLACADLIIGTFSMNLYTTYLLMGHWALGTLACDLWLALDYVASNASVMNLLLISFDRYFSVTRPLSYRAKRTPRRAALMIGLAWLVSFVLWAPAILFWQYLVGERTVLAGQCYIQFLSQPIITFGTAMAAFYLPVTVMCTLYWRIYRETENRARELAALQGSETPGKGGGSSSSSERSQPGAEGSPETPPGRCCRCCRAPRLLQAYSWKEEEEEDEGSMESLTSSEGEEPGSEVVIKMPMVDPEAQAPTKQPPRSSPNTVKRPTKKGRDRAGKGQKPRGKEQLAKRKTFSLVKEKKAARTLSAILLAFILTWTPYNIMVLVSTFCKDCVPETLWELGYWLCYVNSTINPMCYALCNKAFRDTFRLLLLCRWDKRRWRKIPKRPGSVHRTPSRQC
Nature of the test: Alphascreen Surefire phospho-ERK1/2 functional assay, M1. The test is classed as cell-based. As to conditions: for EC50: read-out: pEC50 M1 (converted); for Emax: CHO, read-out: % Emax cf. ACh, M1, CHO cells stably expressing human M1; for Emax / % Emax cf. ACh, M1: relative to ACh. Background: Bead proximity is the source of the signal in Alpha formats.

Test [2] deals with T2, human muscarinic M4 receptor (Homo sapiens, UniProt P08173).
T2 construct: expressed in transfected cells
T2 sequence (P08173 1-479): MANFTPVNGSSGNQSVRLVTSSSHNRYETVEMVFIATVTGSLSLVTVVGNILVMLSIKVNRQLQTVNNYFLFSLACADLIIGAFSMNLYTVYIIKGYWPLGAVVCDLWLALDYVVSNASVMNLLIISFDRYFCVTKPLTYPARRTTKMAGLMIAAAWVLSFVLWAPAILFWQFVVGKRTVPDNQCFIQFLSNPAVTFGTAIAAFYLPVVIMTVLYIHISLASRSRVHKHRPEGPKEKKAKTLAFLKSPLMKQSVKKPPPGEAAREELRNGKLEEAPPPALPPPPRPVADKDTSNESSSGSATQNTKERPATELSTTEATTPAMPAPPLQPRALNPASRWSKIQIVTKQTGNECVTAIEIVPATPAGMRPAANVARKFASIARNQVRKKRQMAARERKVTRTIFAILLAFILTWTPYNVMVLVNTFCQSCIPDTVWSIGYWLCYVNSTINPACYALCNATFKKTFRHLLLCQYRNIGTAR
Briefly: Alphascreen Surefire phospho-ERK1/2 functional assay, M4. It counts as cell-based. The conditions noted are these: for EC50 / % Emax cf. ACh, M4: CHO cells stably expressing human M4; for EC50: phospho-ERK1/2, * = variable results, read-out: pEC50 M4 (converted); for Emax: CHO, read-out: % Emax cf. ACh, M4, CHO cells stably expressing human M4; for Emax / % Emax cf. ACh, M4: relative to ACh.

Test [3] addresses T3, human muscarinic M2 receptor (Homo sapiens, UniProt P08172).
T3 sequence (P08172 1-466): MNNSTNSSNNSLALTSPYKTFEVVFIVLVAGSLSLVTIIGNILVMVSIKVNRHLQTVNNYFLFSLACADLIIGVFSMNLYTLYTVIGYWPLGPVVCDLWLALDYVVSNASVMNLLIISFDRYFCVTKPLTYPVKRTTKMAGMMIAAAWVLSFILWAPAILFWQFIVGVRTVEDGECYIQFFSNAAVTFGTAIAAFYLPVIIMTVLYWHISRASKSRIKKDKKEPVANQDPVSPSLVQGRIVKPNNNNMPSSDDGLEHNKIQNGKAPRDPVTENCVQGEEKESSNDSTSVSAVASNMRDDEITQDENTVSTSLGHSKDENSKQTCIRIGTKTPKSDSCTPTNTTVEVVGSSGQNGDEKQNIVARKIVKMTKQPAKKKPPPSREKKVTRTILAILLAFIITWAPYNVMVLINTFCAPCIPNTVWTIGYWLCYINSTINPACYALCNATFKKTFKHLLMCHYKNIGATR
Nature of the test: Alphascreen Surefire phospho-ERK1/2 functional assay, M2. As to conditions: for Emax: CHO, read-out: % Emax cf. ACh, M2, CHO cells stably expressing human M2; for Emax / % Emax cf. ACh, M2: relative to ACh.

Test [4] has as its target human muscarinic M3 receptor (Homo sapiens, UniProt P20309). Briefly: Alphascreen Surefire phospho-ERK1/2 functional assay, M3. The conditions noted are these: for Emax: CHO, read-out: % Emax cf. ACh, M3, CHO cells stably expressing human M3; for Emax / % Emax cf. ACh, M3: relative to ACh; for EC50: pEC50 M3, CHO cells stably expressing human M3.
[5] abbreviates: CHO cells stably expressing human M1, phospho-ERK1/2, * = variable results.
Where [6] appears, read: phospho-ERK1/2, * = variable results.
[7] abbreviates: CHO cells stably expressing human M1.
The mark [8] stands for this setting: CHO cells stably expressing human M2.
Where [9] appears, read: CHO cells stably expressing human M3.

Sequence of human muscarinic M3 receptor (P20309 whole entry): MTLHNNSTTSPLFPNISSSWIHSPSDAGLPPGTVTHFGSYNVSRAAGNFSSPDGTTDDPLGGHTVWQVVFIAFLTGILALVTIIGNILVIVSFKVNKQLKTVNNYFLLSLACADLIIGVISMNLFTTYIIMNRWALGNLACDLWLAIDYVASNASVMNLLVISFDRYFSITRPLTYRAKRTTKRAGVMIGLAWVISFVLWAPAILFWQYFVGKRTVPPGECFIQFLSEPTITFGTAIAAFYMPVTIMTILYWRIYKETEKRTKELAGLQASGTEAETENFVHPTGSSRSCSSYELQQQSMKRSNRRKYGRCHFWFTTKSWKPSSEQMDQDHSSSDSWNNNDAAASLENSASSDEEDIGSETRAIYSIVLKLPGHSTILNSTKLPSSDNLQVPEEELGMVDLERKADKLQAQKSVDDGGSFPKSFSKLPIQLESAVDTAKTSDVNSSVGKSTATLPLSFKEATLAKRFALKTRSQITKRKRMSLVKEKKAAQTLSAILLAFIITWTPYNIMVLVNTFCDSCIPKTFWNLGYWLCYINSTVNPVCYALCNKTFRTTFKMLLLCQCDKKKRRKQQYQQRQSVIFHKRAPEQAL

In the case of `CCOC(=O)N1CCC2(CC(N3CCC([C@@H]4CCCN4C(=O)NCC(F)F)CC3)C2)C1` (single isomer, unassigned) [2-45 Isomer 2], the EC50 is 251 nM in test [1] (setting [5]), 5.01 nM in test [2], over 20000 nM in test [3] and over 20000 nM in test [4] (setting [6]). Also, the Emax in test [1] is 67%; in test [2] it was 111%; in test [3] it was 5%; in test [4], 5%.

For `CCOC(=O)N1CCC2(CC(N3CCC([C@@H]4CCCN4C(=O)COC)CC3)C2)C1` (single isomer, unassigned) [2-46 Isomer 2], the EC50 was 1580 nM in test [1] (setting [5]), 15.8 nM in test [2], over 20000 nM in test [3] and over 20000 nM in test [4] (setting [6]). Moreover, the Emax in test [1] was 32%; in test [2], 85%; in test [3], 5%; in test [4], 8%.

With `CCOC(=O)N1CCC2(CC(N3CCC([C@@H]4CCCN4C(=O)OCC(F)(F)F)CC3)C2)C1` (single isomer, unassigned) [2-48 Isomer 2], the EC50 is 316 nM in test [1] (setting [5]), 10 nM in test [2], over 20000 nM in test [3] and over 20000 nM in test [4] (setting [6]). Besides, the Emax in test [1] is 34%; in test [2], 81%; in test [3], 3%; in test [4], 5%.

Consider `CCOC(=O)N1CCC2(CC(N3CCC([C@@H]4CCCN4C(=O)OCCOC)CC3)C2)C1` (single isomer, unassigned) [2-50 Isomer 2], for which the EC50 in test [1] (setting [5]) was 251 nM; in test [2], 25.1 nM; in test [3], over 20000 nM; in test [4] (setting [6]), over 20000 nM. For the same molecule, the Emax in test [1] is 63%; in test [2], 73%; in test [3], 4%; in test [4], 2%.

As for `CCOC(=O)N1CCC2(CC(N3CCC([C@@H]4CCCN4C(=O)OCCN(C)C)CC3)C2)C1` (single isomer, unassigned) [2-51 Isomer 2], the EC50 is over 20000 nM in test [1] (setting [5]), 63.1 nM in test [2], over 20000 nM in test [3] and over 20000 nM in test [4] (setting [6]). Besides, the Emax in test [1] worked out at 237%; in test [2], 53%; in test [3] it was 1%; in test [4], 3%.

As to `CCOC(=O)N1CCC2(CC(N3CCC([C@@H]4CCCN4C(=O)CO)CC3)C2)C1` (single isomer, unassigned) [2-52 Isomer 2], the EC50 is 631 nM in test [1] (setting [5]), 20 nM in test [2], over 20000 nM in test [3] and over 20000 nM in test [4] (setting [6]). Also, the maximal effect (Emax) in test [1] was 49%; in test [2], 85%; in test [3], 4%; in test [4] it was 4%.

`CCOC(=O)N1CCC2(CC(N3CCC([C@@H]4CCCN4C(=O)CC(F)(F)F)CC3)C2)C1` (single isomer, unassigned) [2-53 Isomer 2]: the EC50 in test [1] (setting [5]) was 79.4 nM; in test [2] it was 7.94 nM; in test [3], over 20000 nM; in test [4] (setting [6]) it was 6310 nM. Moreover, the Emax in test [1] was found to be 109%; in test [2], 126%; in test [3] it was 10%; in test [4] it was 21%.

In the case of `CCOC(=O)N1CCC2(CC(N3CCC([C@@H]4CCCN4C(=O)NCc4ccccn4)CC3)C2)C1` (single isomer, unassigned) [2-54 Isomer 1], the EC50 was over 20000 nM in test [1] (setting [5]), 15.8 nM in test [2], over 20000 nM in test [3] and over 20000 nM in test [4] (setting [6]). For the same molecule, in test [1] (setting [7]), the “% Emax cf. ACh, M1” value came out at 1%. For the same molecule, in test [2], the “% Emax cf. ACh, M4” value worked out at 45%. Moreover, the “% Emax cf. ACh, M2” value in test [3] (setting [8]) was 50%. The “% Emax cf. ACh, M3” value in test [4] (setting [9]) amounted to 0%.

With `CCOC(=O)N1CCC2(CC(N3CCC([C@@H]4CCCN4C(=O)NCc4ccccn4)CC3)C2)C1` (single isomer, unassigned) [2-54 Isomer 2], in test [1] (setting [5]), the EC50 is 50.1 nM. Also, the “% Emax cf. ACh, M1” value in test [1] (setting [7]) was determined as 86%. Further, in test [2], the EC50 was 1.26 nM and the “% Emax cf. ACh, M4” value amounted to 134%. For the same molecule, in test [3] (CHO cells stably expressing human M2, phospho-ERK1/2, * = variable results), the “pEC50 M2” value is recorded as under 4.7. The “% Emax cf. ACh, M2” value in test [3] (setting [8]) came to 8%. Further, the “pEC50 M3” value in test [4] (CHO cells stably expressing human M3, phospho-ERK1/2, * = variable results) was under 4.7. In addition, in test [4] (setting [9]), the “% Emax cf. ACh, M3” value was 23%.

`CCOC(=O)N1CCC2(CC(N3CCC([C@@H]4CCCN4C(=O)N(C)CC(F)(F)F)CC3)C2)C1` (single isomer, unassigned) [2-55 Isomer 2]: in test [1] (setting [5]), the “pEC50 M1” value is under 4.7. In addition, the “% Emax cf. ACh, M1” value in test [1] (setting [7]) was determined as 7%. Besides, the results for the EC50 in test [2], in test [3] and in test [4] (setting [6]) were 25.1 nM, over 20000 nM and over 20000 nM, respectively. Further, the “% Emax cf. ACh, M4” value in test [2] amounted to 52%. The values for the Emax in test [3] and in test [4] were 22% and 12%, respectively.

Regarding `CCOC(=O)N1CCC2(CC(N3CCC([C@@H]4CCCN4C(=O)NC4COC4)CC3)C2)C1` (single isomer, unassigned) [2-56 Isomer 2], the EC50 was 631 nM in test [1] (setting [5]), 5.01 nM in test [2], over 20000 nM in test [3] and over 20000 nM in test [4] (setting [6]). Further, the Emax in test [1] turned out to be 96%; in test [2], 134%; in test [3] it was 8%; in test [4] it was 0%.

Consider `CCOC(=O)N1CCC2(CC(N3CCC([C@@H]4CCCN4C(=O)N(C)C4COC4)CC3)C2)C1` (single isomer, unassigned) [2-57 Isomer 2], for which the EC50 in test [1] (setting [5]) is over 20000 nM; in test [2], 31.6 nM; in test [3], over 20000 nM; in test [4] (setting [6]), over 20000 nM. The Emax was 16% in test [1], 117% in test [2], 25% in test [3] and 4% in test [4].

In the case of `CCOC(=O)N1CCC2(CC(N3CCC([C@@H]4CCCN4C(=S)CC)CC3)C2)C1` (single isomer, unassigned) [2-58 Isomer 2], the EC50 in test [1] (setting [5]) is 1000 nM; in test [2], 31.6 nM; in test [3], over 20000 nM; in test [4] (setting [6]) it was over 20000 nM. In addition, the Emax amounted to 66% in test [1], 156% in test [2], 45% in test [3] and 9% in test [4].

In the case of `CCOC(=O)N1CCC2(CC(N3CCC([C@@H]4C[C@H](F)CN4C(=O)CC)CC3)C2)C1` (single isomer, unassigned) [2-59 Isomer 2], the EC50 in test [1] (setting [5]) is 3160 nM; in test [2] it was 251 nM; in test [3], over 20000 nM; in test [4] (setting [6]), over 20000 nM. For the same molecule, the Emax was 28% in test [1], 67% in test [2], 11% in test [3] and 7% in test [4].

For the molecule `CCOC(=O)N1CCC2(CC(N3CCC([C@@H]4CCCN4C(=O)CCc4ccccn4)CC3)C2)C1` (single isomer, unassigned) [2-62 Isomer 2], the EC50 in test [1] (setting [5]) was over 20000 nM; in test [2], 15.8 nM; in test [3], over 20000 nM; in test [4] (setting [6]), over 20000 nM. For the same molecule, the Emax in test [1] stood at 20%; in test [2], 65%; in test [3], 6%; in test [4] it was 8%.

One may read the Emax as the maximal effect, on the per cent scale that the assay sets.

The values above are taken from patent US9926297B2, “Bicyclic AZA compounds as muscarinic M1 receptor and/or M4 receptor agonists” (Heptares Therapeutics Limited, priority 2014, dated 2018).
